Measured values from patent US5494895A, “Scorpion peptide margatoxin with immunosuppressant activity” (Merck & Co., Inc., priority 1993, dated 1996).
Peptide text beside a SMILES is read from it.

How the values were obtained:
Shaker-H4 = biological target: T1, Shaker-H4 (Drosophila melanogaster, UniProt P08510); assay: Two-electrode voltage clamp of Xenopus oocytes expressing Shaker-H4; assay type: cell-based
T1 construct: expressed in transfected cells; host or cells: Xenopus oocytes injected with RNA transcribed in vitro from the cDNA clone
T1 sequence (P08510 whole entry): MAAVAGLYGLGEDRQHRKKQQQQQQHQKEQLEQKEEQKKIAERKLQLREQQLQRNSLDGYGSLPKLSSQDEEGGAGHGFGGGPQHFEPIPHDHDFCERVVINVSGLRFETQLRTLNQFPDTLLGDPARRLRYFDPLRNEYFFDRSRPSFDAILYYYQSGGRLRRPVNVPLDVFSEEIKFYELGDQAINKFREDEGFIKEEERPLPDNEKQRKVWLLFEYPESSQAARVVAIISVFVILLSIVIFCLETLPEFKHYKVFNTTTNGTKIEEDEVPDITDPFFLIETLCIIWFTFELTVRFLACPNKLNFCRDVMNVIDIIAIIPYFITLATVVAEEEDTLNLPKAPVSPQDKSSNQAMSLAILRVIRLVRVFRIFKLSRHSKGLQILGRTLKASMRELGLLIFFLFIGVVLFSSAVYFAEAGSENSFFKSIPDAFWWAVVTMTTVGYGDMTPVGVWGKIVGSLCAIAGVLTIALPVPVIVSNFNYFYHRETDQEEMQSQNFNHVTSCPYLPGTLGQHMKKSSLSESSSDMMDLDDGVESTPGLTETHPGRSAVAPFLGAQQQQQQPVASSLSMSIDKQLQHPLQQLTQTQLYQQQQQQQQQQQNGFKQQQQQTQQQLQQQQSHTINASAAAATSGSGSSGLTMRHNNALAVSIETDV
Experimental: (§1) Ionic currents were also recorded from Xenopus oocytes that had been injected with RNA transcribed in vitro from one or another of the following K^+ channel cDNA clones. Kv 1 (rat Kv 1.5), rat or human Kv 3 (rat Kv 1.3; human Kv 1.3), Kv 4 (rat Kv 3.1 ), rat ISK, Kv 2 (rat Kv 1.6) or Drosophila Shaker-H4. The names of the clones are listed as originally published, with the appropriate parenthetical designation according to the unified gene nomenclature proposed by Chandy. Shaker-H4 is a splice variant from the original Drosophila Shaker K^+ channel gene. Kv 1.3 is the ChTX-sensitive delayed rectifier current found in rat and human T lymphocytes (data from rat and human clones were indistinguishable and were combined) and it is a member of the Shaker family. Kv 1.5 is a channel cloned from rat (Swanson et al., Neuron, 4, 929, 1990) and is another member of the Shaker family. The Kv 1.5 transcript has been detected in pancreatic β cells as described in Philipson, et al., Proc. Natl. Acad. Sci. U.S.A. 88, 53, 1991. […] The ISK transcript has been detected in lymphocytes (Attali et al., J. Biol. Chem,. 267, 8650, 1992), but no evidence of the IKs current has been found in those cells.
(§2) Methods for oocyte isolation and micro-injection were previously described in Goldin, Meth. […] Currents expressed in oocytes were measured using a DAGAN model CA-1 two-electrode voltage clamp. […]

[1] = system: Kv 3 (rat Kv 1.3; human Kv 1.3); assay: Two-electrode voltage clamp of Xenopus oocytes expressing Kv 3 (Kv 1.3); assay type: cell-based, rat and human; settings: read-out: IC50 on cloned channel Kv 3
Experimental: as §1, §2

Maxi-K channel = biological target: T2, Maxi-K channel (Bos taurus, UniProt Q28204); assay: [125I]ChTX binding to bovine aortic smooth muscle sarcolemmal membranes; settings: concentrations up to 10 nM
T2 construct: from tissue; host or cells: bovine aortic smooth muscle sarcolemmal membranes
T2 sequence (Q28204 whole entry): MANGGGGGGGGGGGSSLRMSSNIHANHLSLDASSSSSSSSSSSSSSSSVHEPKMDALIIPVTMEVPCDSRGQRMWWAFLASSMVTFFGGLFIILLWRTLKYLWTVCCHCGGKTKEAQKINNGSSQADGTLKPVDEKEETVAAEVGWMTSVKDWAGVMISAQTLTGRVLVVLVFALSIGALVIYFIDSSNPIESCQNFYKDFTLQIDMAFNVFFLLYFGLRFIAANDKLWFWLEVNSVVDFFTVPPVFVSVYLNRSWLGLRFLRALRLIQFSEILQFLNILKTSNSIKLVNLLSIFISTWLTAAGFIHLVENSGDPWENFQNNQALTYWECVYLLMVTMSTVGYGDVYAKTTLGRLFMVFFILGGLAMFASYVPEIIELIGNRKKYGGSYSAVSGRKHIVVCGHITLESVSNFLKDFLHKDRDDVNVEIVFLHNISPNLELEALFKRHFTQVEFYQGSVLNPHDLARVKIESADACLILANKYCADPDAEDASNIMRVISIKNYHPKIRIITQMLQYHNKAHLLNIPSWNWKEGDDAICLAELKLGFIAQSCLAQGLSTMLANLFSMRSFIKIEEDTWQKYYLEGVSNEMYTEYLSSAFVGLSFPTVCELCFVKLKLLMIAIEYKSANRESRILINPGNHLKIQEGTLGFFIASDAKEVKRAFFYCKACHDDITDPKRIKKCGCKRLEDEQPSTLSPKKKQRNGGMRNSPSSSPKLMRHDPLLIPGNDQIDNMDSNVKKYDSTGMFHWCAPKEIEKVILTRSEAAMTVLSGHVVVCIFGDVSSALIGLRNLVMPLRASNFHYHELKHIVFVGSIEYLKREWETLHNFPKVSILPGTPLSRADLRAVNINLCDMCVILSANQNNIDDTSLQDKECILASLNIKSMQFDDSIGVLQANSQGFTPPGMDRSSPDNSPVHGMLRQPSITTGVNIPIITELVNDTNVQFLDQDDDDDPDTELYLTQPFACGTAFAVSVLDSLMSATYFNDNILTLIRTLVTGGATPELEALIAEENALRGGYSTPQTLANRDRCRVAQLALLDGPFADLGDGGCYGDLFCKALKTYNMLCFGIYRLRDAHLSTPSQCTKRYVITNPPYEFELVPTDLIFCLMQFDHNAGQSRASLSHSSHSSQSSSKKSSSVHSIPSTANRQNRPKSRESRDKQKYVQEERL
T2 sequence (Q28067 whole entry partner): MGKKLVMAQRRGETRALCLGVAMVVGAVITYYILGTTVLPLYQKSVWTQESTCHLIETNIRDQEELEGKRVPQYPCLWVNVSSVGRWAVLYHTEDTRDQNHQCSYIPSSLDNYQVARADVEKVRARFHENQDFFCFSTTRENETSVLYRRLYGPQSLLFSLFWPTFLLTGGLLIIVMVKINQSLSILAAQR
Experimental: The potency of MgTX as an inhibitor of [^125 I]ChTX binding to Kv 1.3 was evaluated. The binding of [^125 I]ChTX to either rat brain synaptic plasma membrane vesicles (Kv 1.3 channel; Vazquez et al., J. Biol. Chem. 265, 15564, 1990) or bovine aortic smooth muscle sarcolemmal membranes (Maxi-K channel; Vazquez et al., J. Biol. Chem. 264, 20402, 1989) was determined as described. Briefly, membrane vesicles were incubated with [^125 I]ChTX in the presence or absence of other added agents, until equilibrium was achieved. Separation of bound from free ligand was accomplished by filtration through GF/C glass fiber filters (WHATMAN) that had been presoaked in 0.5% polyethyleneimine. Nonspecific binding was determined in the presence of 10 nM unlabeled ChTX. Data from saturation experiments were analyzed in a Scatchard representation to determine Kd and Bmax values. Triplicate samples were obtained for each experimental point and the data were averaged. The standard deviation of the mean was typically less than 2%. […] As an indication of selectivity, MgTX had no effect on [^125 I]ChTX binding to the Maxi-K channel in smooth muscle membranes at concentrations up to 10 nM.

[2] = biological target: T3, Kv 1.3 of human T lymphocytes (Homo sapiens, UniProt P22001); assay: [125I]ChTX binding to human T cells
T3 construct: endogenous in cells; host or cells: purified human peripheral blood T lymphocytes
T3 sequence (P22001 whole entry): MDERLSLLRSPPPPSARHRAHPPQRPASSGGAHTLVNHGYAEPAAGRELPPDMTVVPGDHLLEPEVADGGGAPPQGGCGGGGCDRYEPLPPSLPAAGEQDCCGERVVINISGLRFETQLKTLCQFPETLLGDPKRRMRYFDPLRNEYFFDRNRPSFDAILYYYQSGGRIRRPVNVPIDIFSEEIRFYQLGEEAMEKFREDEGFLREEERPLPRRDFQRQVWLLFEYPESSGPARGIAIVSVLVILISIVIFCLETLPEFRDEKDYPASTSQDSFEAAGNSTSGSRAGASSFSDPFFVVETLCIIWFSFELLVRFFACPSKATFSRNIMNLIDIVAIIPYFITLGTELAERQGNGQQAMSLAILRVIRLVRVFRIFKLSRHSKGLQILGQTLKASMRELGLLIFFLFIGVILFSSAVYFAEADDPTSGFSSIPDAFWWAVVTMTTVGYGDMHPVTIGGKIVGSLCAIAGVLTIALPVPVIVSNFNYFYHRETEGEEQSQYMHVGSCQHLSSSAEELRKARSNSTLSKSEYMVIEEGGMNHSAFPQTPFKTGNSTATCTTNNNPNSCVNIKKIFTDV
Experimental: In addition to being tested for competition for [^125 I]ChTX binding to rat brain and bovine aortic smooth muscle, MgTX was evaluated for its effects on [^125 I]ChTX binding to human T lymphocytes and to plasma membranes prepared from Jurkat cells, a human T-cell leukemia line. MgTX competition for [^125 I]ChTX binding to human T cells was performed as described by Lin, et al., J. Exp. Med. 177, 637-645, 1993. Binding experiments using monocyte-depleted, E-rosetted human T cells were carried out in isotonic sucrose with 5 mM KCl, 5 mM NaCl, 6 mM glucose and 10 mM HEPES, pH 8.0 until equilibrium was achieved. The procedure for binding to plasma membranes from Jurkat Cells is similar except that the binding solution was 3 mM KCl, 7 mM NaCl, 10 mM HEPES, pH 8.0. Free ligand was removed from bound by filtration through Whatman GF/C glass fiber filters (pretreated with 0.5% polyethylenimine). […] Hill coefficients were 2 in both cases.

CC[C@H](C)[C@H](NC(=O)[C@@H](N)[C@@H](C)O)C(=O)N[C@H](C(=O)N[C@@H](CC(N)=O)C(=O)N[C@H](C(=O)N[C@@H](CCCCN)C(=O)N[C@H]1CSSC[C@@H]2NC(=O)[C@H](CCCCN)NC(=O)[C@H](C)NC(=O)CNC(=O)[C@H](C)NC(=O)[C@H](CO)NC(=O)[C@H](CCC(N)=O)NC(=O)CNC(=O)[C@H](Cc3ccccc3)NC(=O)[C@H](CCC(N)=O)NC(=O)[C@H](C)NC(=O)[C@H](CCCCN)NC(=O)[C@@H]3CSSC[C@@H](C(=O)N[C@@H](Cc4ccc(O)cc4)C(=O)N4CCC[C@H]4C(=O)N[C@@H](Cc4c[nH]cn4)C(=O)O)NC(=O)[C@H](CCCCN)NC(=O)[C@H](CSSC[C@H](NC(=O)[C@H](CCC(N)=O)NC(=O)[C@H](CCCCN)NC(=O)[C@@H]4CCCN4C(=O)[C@H](CO)NC(=O)[C@H]([C@@H](C)O)NC1=O)C(=O)N[C@@H](CC(C)C)C(=O)N1CCC[C@H]1C(=O)N1CCC[C@H]1C(=O)N3)NC(=O)[C@H](CCCCN)NC(=O)CNC(=O)[C@H](CC(N)=O)NC(=O)[C@H](CCSC)NC2=O)C(C)C)[C@@H](C)CC [MgTX, Margatoxin] (HELM PEPTIDE1{T.I.I.N.V.K.C.T.S.P.K.Q.C.L.P.P.C.K.A.Q.F.G.Q.S.A.G.A.K.C.M.N.G.K.C.K.C.Y.P.H}$PEPTIDE1,PEPTIDE1,7:R3-29:R3|PEPTIDE1,PEPTIDE1,13:R3-34:R3|PEPTIDE1,PEPTIDE1,17:R3-36:R3$$$V2.0; N-terminus and C-terminus assumed; bridges inferred)
IC50 (Shaker-H4): 100 nM
IC50 [1]: ~0.03 nM
effect on [125I]ChTX binding to the Maxi-K channel in smooth muscle membranes (Maxi-K channel): no effect
Hill coefficient [2]: 2
IC50 ([2]; isotonic sucrose, pH 8.0, read-out: IC50 for inhibition of [125I]ChTX binding): 0.0014 nM
